In US10899774B2, “IRAK4 modulators” (Genentech, Inc., priority 2017, dated 2021):
One block for each compound: values may come before it.

Molecular target: human IRAK4 (Homo sapiens (Human), UniProt Q9NWZ3)
Test: IRAK4 kinase inhibition, Transcreener fluorescence polarization (ADP detection)
Type: biochemical
Conditions: recombinant full-length His6-IRAK4; 1.25 nM IRAK4; 125 μM ATP; 90 min; ATP Km 642 μM
Method: Compounds were assayed for inhibition of human IRAK4 and IRAK1 catalytic activity using recombinant enzyme produced from insect cells. Full-length IRAK4 protein, carrying an N-terminal His6-Tag, was obtained from Life Technologies (Carlsbad, Calif., USA). The IRAK1 construct was produced internally and was comprised of IRAK1 residues Arg194 to Ser712, preceded by an NH2-terminal His6 tag and the coding sequence for glutathione-S-transferase.
Kinase activities were assayed using the Transcreener-Fluorecescence polarization platform (BelBrook Labs, Madison, Wis., USA) that measures amounts of the reaction product, ADP.
384 well assay plates spotted with compound received 4 μl of a 2× substrate (ATP+peptide) mix in reaction buffer, followed by 4 μl of 2× enzyme diluted in reaction buffer.

Chain of human IRAK4 (Q9NWZ3 whole entry): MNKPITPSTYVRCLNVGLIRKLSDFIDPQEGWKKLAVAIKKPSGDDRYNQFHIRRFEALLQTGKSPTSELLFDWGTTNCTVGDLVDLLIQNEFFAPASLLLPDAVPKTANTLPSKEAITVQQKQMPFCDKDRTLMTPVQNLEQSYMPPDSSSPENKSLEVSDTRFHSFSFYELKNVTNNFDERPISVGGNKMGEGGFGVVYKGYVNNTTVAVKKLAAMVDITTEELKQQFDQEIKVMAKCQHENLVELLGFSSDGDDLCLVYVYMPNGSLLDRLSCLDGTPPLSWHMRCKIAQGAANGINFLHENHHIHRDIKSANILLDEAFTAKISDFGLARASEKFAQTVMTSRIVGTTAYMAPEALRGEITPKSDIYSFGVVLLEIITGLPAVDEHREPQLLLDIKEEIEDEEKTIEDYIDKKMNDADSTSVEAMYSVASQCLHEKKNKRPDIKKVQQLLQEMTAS

Structure (SMILES): Cn1ccc(C(=O)Nc2cc3c(cc2N2CCOCC2)O[C@](C)(CO)C3)n1 (single isomer, unassigned) [Example 16]
Ki: 48 nM

Structure (SMILES): Cn1ccc(C(=O)Nc2cc3c(cc2N2CCOCC2)O[C@@](C)(CO)C3)n1 (single isomer, unassigned) [Example 17]
Ki: 120 nM

Structure (SMILES): Cn1nnc2c(C(=O)Nc3cc4c(cc3N3CCOCC3)O[C@@](C)(CO)C4)cncc21 (single isomer, unassigned) [Example 67]
Ki: 180 nM

Structure (SMILES): Cn1nnc2c(C(=O)Nc3cc4c(cc3N3CCOCC3)O[C@](C)(CO)C4)cncc21 (single isomer, unassigned) [Example 68]
Ki: 70 nM

Structure (SMILES): C[C@]1(CO)Cc2cc(NC(=O)c3csc4cc(Cl)cnc34)c(N3CCOCC3)cc2O1 (stereo in doubt) [Example 56, (R)-6-Chloro-N-(2-(hydroxymethyl)-2-methyl-6-morpholino-2,3-dihydrobenzofuran-5-yl)thieno[3,2-b]pyridine-3-carboxamide]
Ki: 37 nM

Structure (SMILES): CC1(C)Cc2cc(NC(=O)c3cnn4c3OCCC4)c(N3CCOCC3)cc2O1 [Example 1, N-(2,2-Dimethyl-6-morpholino-2,3-dihydrobenzofuran-5-yl)-6,7-dihydro-5H-pyrazolo[5,1-b][1,3]oxazine-3-carboxamide]
Ki: 67 nM

Structure (SMILES): Cc1nc(C(=O)Nc2cc3c(cc2N2CCOCC2)OC(C)(C)C3)cs1 [Example 6, N-(2,2-Dimethyl-6-morpholino-2,3-dihydrobenzofuran-5-yl)-2-methylthiazole-4-carboxamide]
Ki: 38 nM

Structure (SMILES): Cc1cncc(C(=O)Nc2cc3c(cc2N2CCOCC2)OC(C)(C)C3)n1 [Example 7, N-(2,2-Dimethyl-6-morpholino-2,3-dihydrobenzofuran-5-yl)-6-methylpyrazine-2-carboxamide]
Ki: 43 nM

Structure (SMILES): CC1(C)Cc2cc(NC(=O)c3cccc(F)n3)c(N3CCOCC3)cc2O1 [Example 8, N-(2,2-Dimethyl-6-morpholino-2,3-dihydrobenzofuran-5-yl)-6-fluoropicolinamide]
Ki: 45 nM

Structure (SMILES): CC1(C)Cc2cc(NC(=O)c3ccnc(S(C)(=O)=O)n3)c(N3CCOCC3)cc2O1 [Example 9, N-(2,2-Dimethyl-6-morpholino-2,3-dihydrobenzofuran-5-yl)-2-(methylsulfonyl)pyrimidine-4-carboxamide]
Ki: 530 nM

Structure (SMILES): CC1(C)Cc2cc(NC(=O)c3cnccn3)c(N3CCOCC3)cc2O1 [Example 11, N-(2,2-Dimethyl-6-morpholino-2,3-dihydrobenzofuran-5-yl)pyrazine-2-carboxamide]
Ki: 290 nM

Structure (SMILES): CC1(C)Cc2cc(NC(=O)c3ccc[nH]c3=O)c(N3CCOCC3)cc2O1 [Example 12, N-(2,2-Dimethyl-6-morpholino-2,3-dihydrobenzofuran-5-yl)-2-oxo-1,2-dihydropyridine-3-carboxamide]
Ki: 77 nM

Structure (SMILES): Cc1cnc(C(=O)Nc2cc3c(cc2N2CCOCC2)OC(C)(C)C3)cn1 [Example 13, N-(2,2-Dimethyl-6-morpholino-2,3-dihydrobenzofuran-5-yl)-5-methylpyrazine-2-carboxamide]
Ki: 280 nM

Structure (SMILES): CC1(C)Cc2cc(NC(=O)c3cnsn3)c(N3CCOCC3)cc2O1 [Example 14, N-(2,2-Dimethyl-6-morpholino-2,3-dihydrobenzofuran-5-yl)-1,2,5-thiadiazole-3-carboxamide]
Ki: 340 nM

Structure (SMILES): CC1(C)Cc2cc(NC(=O)c3cnc4cccnn34)c(N3CCOCC3)cc2O1 [Example 15, N-(2,2-Dimethyl-6-morpholino-2,3-dihydrobenzofuran-5-yl)imidazo[1,2-b]pyridazine-3-carboxamide]
Ki: 36 nM

Structure (SMILES): CC1(C)Cc2cc(NC(=O)c3cncc4[nH]cnc34)c(N3CCOCC3)cc2O1 [Example 21, N-(2,2-Dimethyl-6-morpholino-2,3-dihydrobenzofuran-5-yl)-3H-imidazo[4,5-c]pyridine-7-carboxamide]
Ki: 280 nM

Structure (SMILES): C[C@H]1COCCN1c1nc(C(=O)Nc2cc3c(cc2N2CCOCC2)OC(C)(C)C3)co1 [Example 26, (S)-N-(2,2-Dimethyl-6-morpholino-2,3-dihydrobenzofuran-5-yl)-2-(3-methylmorpholino)oxazole-4-carboxamide]
Ki: 35 nM

Structure (SMILES): CC1(C)Cc2cc(NC(=O)c3ccccn3)c(N3CCOCC3)cc2O1 [Example 27, N-(2,2-Dimethyl-6-morpholino-2,3-dihydrobenzofuran-5-yl)picolinamide]
Ki: 42 nM

Structure (SMILES): CC1(C)Cc2cc(NC(=O)c3c[nH]c4cccnc34)c(N3CCOCC3)cc2O1 [Example 28, N-(2,2-Dimethyl-6-morpholino-3H-benzofuran-5-yl)-1H-pyrrolo[3,2-b]pyridine-3-carboxamide]
Ki: 470 nM

Structure (SMILES): Cc1ccc(-c2cc3c(cc2NC(=O)c2cnc(C)o2)CC(C)(C)O3)nc1 [Example 29, N-[2,2-Dimethyl-6-(5-methyl-2-pyridyl)-3H-benzofuran-5-yl]-2-methyl-oxazole-5-carboxamide]
Ki: 230 nM

Structure (SMILES): CC1(C)Cc2cc(NC(=O)c3cccs3)c(N3CCOCC3)cc2O1 [Example 30, N-(2,2-Dimethyl-6-morpholino-2,3-dihydrobenzofuran-5-yl)thiophene-2-carboxamide]
Ki: 780 nM

Further compounds by falling Ki, results first:

Ki: 35 nM
Structure (SMILES): Cc1nc2c(C(=O)Nc3cc4c(cc3N3CCOCC3)OC(C)(C)C4)cncc2[nH]1 [Example 25, N-(2,2-Dimethyl-6-morpholino-2,3-dihydrobenzofuran-5-yl)-2-methyl-3H-imidazo[4,5-c]pyridine-7-carboxamide]

Ki: 30 nM
Structure (SMILES): CC1(C)Cc2cc(NC(=O)c3ccc(O)nn3)c(N3CCOCC3)cc2O1 [Example 2, N-(2,2-Dimethyl-6-morpholino-2,3-dihydrobenzofuran-5-yl)-6-hydroxypyridazine-3-carboxamide]

Ki: 30 nM
Structure (SMILES): CC1(C)Cc2cc(NC(=O)c3cccc4[nH]cnc34)c(N3CCOCC3)cc2O1 [Example 20, N-(2,2-Dimethyl-6-morpholino-2,3-dihydrobenzofuran-5-yl)-1H-benzo[d]imidazole-4-carboxamide]

Ki: 27 nM
Structure (SMILES): CC1(C)Cc2cc(NC(=O)c3cc4ccncc4o3)c(N3CCOCC3)cc2O1 [Example 10, N-(2,2-Dimethyl-6-morpholino-2,3-dihydrobenzofuran-5-yl)furo[2,3-c]pyridine-2-carboxamide]

Ki: 25 nM
Structure (SMILES): Cc1nc(C(=O)Nc2cc3c(cc2N2CCOCC2)OC(C)(C)C3)ccc1C#N [Example 5, 5-Cyano-N-(2,2-dimethyl-6-morpholino-2,3-dihydrobenzofuran-5-yl)-6-methylpicolinamide]

Ki: 25 nM
Structure (SMILES): CC1(C)Cc2cc(NC(=O)c3cccc(C(F)(F)F)n3)c(N3CCOCC3)cc2O1 [Example 22, N-(2,2-Dimethyl-6-morpholino-2,3-dihydrobenzofuran-5-yl)-6-(trifluoromethyl)picolinamide]

Ki: 23 nM
Structure (SMILES): Cc1ccc(C(=O)Nc2cc3c(cc2N2CCOCC2)OC(C)(C)C3)o1 [Example 31, N-(2,2-Dimethyl-6-morpholino-2,3-dihydrobenzofuran-5-yl)-5-methylfuran-2-carboxamide]

Ki: 21 nM
Structure (SMILES): C[C@]1(CO)Cc2cc(NC(=O)c3ccc4cccnn34)c(N3CCOCC3)cc2O1 (single isomer, unassigned) [Example 19]

Ki: 19 nM
Structure (SMILES): C[C@@]1(CO)Cc2cc(NC(=O)c3csc4cc(Cl)cnc34)c(N3CCOCC3)cc2O1 (stereo in doubt) [Example 57, (S)-6-Chloro-N-(2-(hydroxymethyl)-2-methyl-6-morpholino-2,3-dihydrobenzofuran-5-yl)thieno[3,2-b]pyridine-3-carboxamide]

Ki: 19 nM
Structure (SMILES): CC1COCCN1c1nc(C(=O)Nc2cc3c(cc2N2CCOCC2)OC(C)(C)C3)cs1 (stereo not drawn) [Example 32, N-(2,2-Dimethyl-6-morpholino-2,3-dihydrobenzofuran-5-yl)-2-(3-methylmorpholino)thiazole-4-carboxamide]

Ki: 17 nM
Structure (SMILES): CC1(C)Cc2cc(NC(=O)c3coc(-c4ccncn4)n3)c(N3CCOCC3)cc2O1 [Example 34, N-(2,2-Dimethyl-6-morpholino-2,3-dihydrobenzofuran-5-yl)-2-(pyrimidin-4-yl)oxazole-4-carboxamide]

Ki: 13 nM
Structure (SMILES): CC1(C)Cc2cc(NC(=O)c3csc4c(N)ncnc34)c(N3CCOCC3)cc2O1 [Example 3, 4-Amino-N-(2,2-dimethyl-6-morpholino-2,3-dihydrobenzofuran-5-yl)thieno[3,2-d]pyrimidine-7-carboxamide]

Ki: 7.7 nM
Structure (SMILES): C[C@]1(CO)Cc2cc(NC(=O)c3ccc4cncnn34)c(N3CCOCC3)cc2O1 (single isomer, unassigned) [Example 24]

Ki: 7.1 nM
Structure (SMILES): CC1(C)Cc2cc(NC(=O)c3cccc4[nH]nnc34)c(N3CCOCC3)cc2O1 [Example 4, N-(2,2-Dimethyl-6-morpholino-2,3-dihydrobenzofuran-5-yl)-1H-benzo[d][1,2,3]triazole-4-carboxamide]

Ki: 3.7 nM
Structure (SMILES): Cc1cn(-c2nc(C(=O)Nc3cc4c(cc3N3CCOCC3)OC(C)(C)C4)co2)cn1 [Example 33, N-(2,2-Dimethyl-6-morpholino-2,3-dihydrobenzofuran-5-yl)-2-(4-methyl-1H-imidazol-1-yl)oxazole-4-carboxamide]

Ki: 3.6 nM
Structure (SMILES): C[C@@]1(CO)Cc2cc(NC(=O)c3ccc4cncnn34)c(N3CCOCC3)cc2O1 (single isomer, unassigned) [Example 23]

Ki: 3.4 nM
Structure (SMILES): C[C@@]1(CO)Cc2cc(NC(=O)c3ccc4cccnn34)c(N3CCOCC3)cc2O1 (single isomer, unassigned) [Example 18]

Ki: 1.4 nM
Structure (SMILES): Cc1cc(-c2nc(C(=O)Nc3cc4c(cc3N3CCOCC3)OC(C)(C)C4)co2)ccn1 [Example 35, N-(2,2-Dimethyl-6-morpholino-2,3-dihydrobenzofuran-5-yl)-2-(2-methylpyridin-4-yl)oxazole-4-carboxamide]
